Source: patent US11890288B2, “Sulfonamide or sulfinamide compound having effect of inducing BRD4 protein degradation and pharmaceutical use thereof” (MITSUBISHI TANABE PHARMA CORPORATION, priority 2020, dated 2024)
pIC50: −log10 of the molar value. Marks after values point to notes of the source that are not given here.

Assays:
[1] = test system: human prostate cancer LNCaP cells; test: Cytotoxic action on LNCaP cells (WST-8, 96 hr); type: cell-based; conditions: 96 hr culture
Outline: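 Growth-inhibition format: 96 hr continuous exposure, 37° C, 5% CO2, 10% FBS/RPMI1640, WST-8 read-out. Values are IC50 against the untreated-control survival, taken from the line joining the two points around 50%.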

BRD4 protein = BRD4 protein (Homo sapiens (Human), UniProt O60885); test: BRD4 protein degradation inducing action in LNCaP cells (immunofluorescence, 6 hr); type: cell-based; conditions: anti-BRD4 fluorescence intensity
Outline: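 LNCaP cells in 10% FBS/RPMI1640 exposed to compound for 6 hr, fixed, permeabilized and immunostained for BRD4 with Alexa Fluor 546 secondary; fluorescence (ex 560, em 572 nm) read by imaging. DC50 = concentration giving 50% of untreated signal, interpolated linearly between the two bracketing points.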

[2] = test system: human acute myeloid leukemia MV-4-11 cell transplanted mouse; test: Antitumor effect of 1 week intermittent administration to MV-4-11 cell transplanted mouse (tail vein, days 1 and 8); type: in vivo; conditions: tumor weight on day 15
Protocol: The in vivo antitumor effect of the compound of the present invention was studied using human acute myeloid leukemia MV-4-11 cell transplanted mouse. MV-4-11 cells were subcutaneously transplanted into the inguinal region of male, 6-week-old BALB/c nude mouse (5×10^6 cells/mouse). The compound of the present invention was administered into the tail vein on days 1 and 8 from the time point when the assumed tumor volume determined from ½ab^2 (a is major axis and b is minor axis of tumor) reached about 200 mm^3 (day 1). The control group was administered with a solvent, 10% Kolliphor ELP/5% ethanol/85% saline solution. On day 15, the tumor was isolated, the weight was measured, and the tumor growth inhibitory rate IR (%) was calculated by the following formula. tumor growth inhibitory rate IR (%)={1−(average tumor weight of administration group/average tumor weight of nonadministration control group)}×100(%)

SMILES	pIC50 [1]	DC50 (BRD4 protein) [nM]	tumor growth inhibitory rate ([2]; 4 mg/kg/day)	tumor growth inhibitory rate ([2]; 12.5 mg/kg/day)
COC(=O)C[C@@H]1N=C(c2ccc(-c3ccc(C(=O)NCc4ccc(S(=O)(=O)Nc5ccc(C)c6c(C#N)c[nH]c56)cc4)cc3Cl)cc2)c2c(sc(C)c2C)-n2c(C)nnc21 [Example 47, methyl [(6S)-4-{2′-chloro-4′-[({4-[(3-cyano-4-methyl-1H-indol-7-yl)sulfamoyl]phenyl}methyl)carbamoyl][1,1′-biphenyl]-4-yl}-2,3,9-trimethyl-6H-thieno[3,2-f][1,2,4]triazolo[4,3-a][1,4]diazepin-6-yl]acetate]	9.34	0.3	32* %	68** %
COC(=O)C[C@@H]1N=C(c2ccc(-c3ccc(C(=O)NCc4ccc(S(=O)(=O)Nc5ccc(C)c6c(C#N)c[nH]c56)cc4)c(F)c3F)cc2)c2c(sc(C)c2C)-n2c(C)nnc21 [Example 74, methyl [(6S)-4-{4′-[({4-[(3-cyano-4-methyl-1H-indol-7-yl)sulfamoyl]phenyl}methyl)carbamoyl]-2′,3′-difluoro[1,1′-biphenyl]-4-yl}-2,3,9-trimethyl-6H-thieno[3,2-f][1,2,4]triazolo[4,3-a][1,4]diazepin-6-yl]acetate]	9.68	0.092	43** %	94** %
Cc1cc(-c2ccc(C3=N[C@@H](CC(=O)OC(C)(C)C)c4nnc(C)n4-c4sc(C)c(C)c43)cc2)ccc1C(=O)NCc1ccc(S(=O)(=O)Nc2ccc(C)c3c(C#N)c[nH]c23)cc1 [Example Compound 141, t-butyl [(6S)-4-{4′-[({4-[(3-cyano-4-methyl-1H-indol-7-yl)sulfamoyl]phenyl}methyl)carbamoyl]-3′-methyl[1,1′-biphenyl]-4-yl}-2,3,9-trimethyl-6H-thieno[3,2-f][1,2,4]triazolo[4,3-a][1,4]diazepin-6-yl]acetate]	9.04	0.47	–	–
Cc1sc2c(c1C)C(c1ccc(-c3ccc(C(=O)NCc4ccc(S(=O)(=O)Nc5ccc(C)c6c(C#N)c[nH]c56)cc4)cc3F)cc1)=N[C@@H](CC(=O)OC(C)(C)C)c1nnc(C)n1-2 [Example Compound 142, t-butyl [(6S)-4-{4′-[({4-[(3-cyano-4-methyl-1H-indol-7-yl)sulfamoyl]phenyl}methyl)carbamoyl]-2′-fluoro[1,1′-biphenyl]-4-yl)-2,3,9-trimethyl-6H-thieno[3,2-f][1,2,4]triazolo[4,3-a][1,4]diazepin-6-yl]acetate]	8.89	0.51	–	–
Cc1sc2c(c1C)C(c1ccc(-c3ccc(C(=O)NCc4ccc(S(=O)(=O)Nc5ccc(C)c6c(C#N)c[nH]c56)cc4)cc3Cl)cc1)=N[C@@H](CC(=O)OC(C)(C)C)c1nnc(C)n1-2 [Example Compound 143, t-butyl [(6S)-4-{2′-chloro-4′-[({4-[(3-cyano-4-methyl-1H-indol-7-yl)sulfamoyl]phenyl}methyl)carbamoyl][1,1′-biphenyl]-4-yl}-2,3,9-trimethyl-6H-thieno[3,2-f][1,2,4]triazolo[4,3-a][1,4]diazepin-6-yl]acetate]	8.62	1.6	–	–
Cc1cc(C(=O)NCc2ccc(S(=O)(=O)Nc3ccc(C)c4c(C#N)c[nH]c34)cc2)ccc1-c1ccc(C2=N[C@@H](CC(=O)OC(C)(C)C)c3nnc(C)n3-c3sc(C)c(C)c32)cc1 [Example Compound 144, t-butyl [(6S)-4-{4′-[({4-[(3-cyano-4-methyl-1H-indol-7-yl)sulfamoyl]phenyl}methyl)carbamoyl]-2′-methyl[1,1′-biphenyl]-4-yl}-2,3,9-trimethyl-6H-thieno[3,2-f][1,2,4]triazolo[4,3-a][1,4]diazepin-6-yl]acetate]	8.92	0.59	–	–
Cc1sc2c(c1C)C(c1ccc(-c3ccc(C(=O)NCc4ccc(S(=O)(=O)Nc5ccc(C)c6c(C#N)c[nH]c56)cc4)nc3)cc1)=N[C@@H](CC(=O)OC(C)(C)C)c1nnc(C)n1-2 [Example Compound 145, t-butyl [(6S)-4-(4-{6-[({4-[(3-cyano-4-methyl-1H-indol-7-yl)sulfamoyl]phenyl}methyl)carbamoyl]pyridin-3-yl}phenyl)-2,3,9-trimethyl-6H-thieno[3,2-f][1,2,4]triazolo[4,3-a][1,4]diazepin-6-yl]acetate]	9.36	0.17	–	–
COC(=O)C[C@@H]1N=C(c2ccc(-c3cnc(C(=O)NCc4ccc(S(=O)(=O)Nc5ccc(C)c6c(C#N)c[nH]c56)cc4)nc3)cc2)c2c(sc(C)c2C)-n2c(C)nnc21 [Example Compound 146, methyl [(6S)-4-(4-{2-[({4-[(3-cyano-4-methyl-1H-indol-7-yl)sulfamoyl]phenyl}methyl)carbamoyl]pyrimidin-5-yl}phenyl)-2,3,9-trimethyl-6H-thieno[3,2-f][1,2,4]triazolo[4,3-a][1,4]diazepin-6-yl]acetate]	8.89	0.26	–	–
Cc1sc2c(c1C)C(c1ccc(-c3cnc(C(=O)NCc4ccc(S(=O)(=O)Nc5ccc(C)c6c(C#N)c[nH]c56)cc4)nc3)cc1)=N[C@@H](CC(=O)OC(C)(C)C)c1nnc(C)n1-2 [Example Compound 147, t-butyl [(6S)-4-(4-{2-[({4-[(3-cyano-4-methyl-1H-indol-7-yl)sulfamoyl]phenyl}methyl)carbamoyl]pyrimidin-5-yl}phenyl)-2,3,9-trimethyl-6H-thieno[3,2-f][1,2,4]triazolo[4,3-a][1,4]diazepin-6-yl]acetate]	9.38	0.13	–	–
Cc1sc2c(c1C)C(c1ccc(-c3cnc(C(=O)NCc4ccc(S(=O)(=O)Nc5ccc(C)c6c(C#N)c[nH]c56)cc4)cn3)cc1)=N[C@@H](CC(=O)OC(C)(C)C)c1nnc(C)n1-2 [Example Compound 148, t-butyl [(6S)-4-(4-{5-[({4-[(3-cyano-4-methyl-1H-indol-7-yl)sulfamoyl]phenyl}methyl)carbamoyl]pyrazin-2-yl}phenyl)-2,3,9-trimethyl-6H-thieno[3,2-f][1,2,4]triazolo[4,3-a][1,4]diazepin-6-yl]acetate]	9.70	0.042	–	–
COC(=O)C[C@@H]1N=C(c2ccc(-c3ccc(C(=O)NCc4ccc(S(=O)(=O)Nc5ccc(C)c6c(C#N)c[nH]c56)cc4)nn3)cc2)c2c(sc(C)c2C)-n2c(C)nnc21 [Example Compound 149, methyl [(6S)-4-(4-{6-[({4-[(3-cyano-4-methyl-1H-indol-7-yl)sulfamoyl]phenyl}methyl)carbamoyl]pyridazin-3-yl}phenyl)-2,3,9-trimethyl-6H-thieno[3,2-f][1,2,4]triazolo[4,3-a][1,4]diazepin-6-yl]acetate]	9.27	0.18	–	–
Cc1sc2c(c1C)C(c1ccc(-c3ccc(C(=O)NCc4ccc(S(=O)(=O)Nc5ccc(C)c6c(C#N)c[nH]c56)cc4)nn3)cc1)=N[C@@H](CC(=O)OC(C)(C)C)c1nnc(C)n1-2 [Example Compound 150, t-butyl [(6S)-4-(4-{6-[({4-[(3-cyano-4-methyl-1H-indol-7-yl)sulfamoyl]phenyl}methyl)carbamoyl]pyridazin-3-yl}phenyl)-2,3,9-trimethyl-6H-thieno[3,2-f][1,2,4]triazolo[4,3-a][1,4]diazepin-6-yl]acetate]	9.37	0.12	–	–
